From patent US6347239B1, “Method of evaluating the efficacy of drug on brain nerve cells” (priority 1998, dated 2002) come the findings set out here.

Several values for one entry are separate records, joined by “and”; a condition that tells them apart may be missing. Equal entries are not always repeated.

For experiment [1], the system named is primary motor cortex of patients with ALS. Put plainly: Proton MRSI of NAA/Cr in the motor cortex of ALS patients, paired scans. In kind it is in vivo, human. As for the experimental part:
Nineteen patients with a diagnosis of definite or probable ALS, as per the El Escorial Criteria, ^12 were recruited. Each patient underwent paired MRSI examinations. […] Thus, closely paired MRSIs were obtained off medication in 12 subjects who formed a disease control group ALS-C.
Brain proton spectroscopy was performed using a Philips Gyroscan ACS3 operating at 1.5 Tesla (Philips Medical System, Best, The Netherlands). After axial and sagittal scout images and sagittal T1-weighted images were obtained, axial T1-weighted images were acquired with an angulation determined from sagittal T1-weighted images such that the transverse plane was perpendicular to the rostral-caudal axis of the precentral gyrus. These transverse scans were used to select a volume of interest (VOI) centered on the central sulcus, high in the cranium comprised of predominantly cortical brain (FIG. 1A). Cranio-caudal (CC) thickness was 20 mm. Anteroposterior (AP) and left-right (LR) dimensions were adjusted for each patient depending on the skull size and shape to maximize size without including skull. MRSI was performed using a 90°-180°−180° (PRESS) sequence (TR=1750, TE=272, 250×250 mm FOV, 32×32 phase-encoding steps) with prior suppression of water by selective excitation. One patient had all their scans performed with TR=1500. The ROI was repositioned in the identical location in follow up scans of each patient.
Post-processing of data, included a mild Gaussian filter and an inverse two-dimensional Fourier transform of both the water-suppressed and -unsuppressed ^1H-MRS. This was accomplished with XUNSPEC1 software (Philips Medical Systems Best, The Netherlands) running on a Sun SPARC™ station.
The residual water signal was removed using the HSVD (Hankel Singular-Value Decomposition) algorithm which models the time-domain ^1H-MRS data in each voxel with exponentially damped sinusoids. Peaks used to model the water signal were then subtracted from the original data. This algorithm is fully automatic and requires no prior knowledge or operator intervention.
Automated calculation of metabolite peak areas was performed on operator-selected voxels within the motor cortex. Peaks were digitally integrated to yield areas. These values were normalized by dividing them by that of Cr.
The NAA/Cr of the primary motor cortex was determined by averaging the NAA/Cr intensities of voxels located in the precentral gyrus of both hemispheres (FIGS. 1A and 1B). The difference in motor cortex NAA/Cr between two scans (ΔNAA/Cr) obtained approximately 3 weeks apart was determined for each ALS patient in the treated (ALS-R) and control (ALS-C) groups. ΔNAA/Cr was compared between the treated and control groups using a two-sample two-sided Student's t-test. In addition, a two-sided paired Student's t-test was used to evaluate the significance of […] within each group.

In the next experiment the test system is patients with ALS. Briefly: Clinical status and muscle strength (MRC grades) of ALS patients during therapy. In kind it is in vivo, human. The text has this: Deltoid and iliopsoas MRC grades improved bilaterally from 4 to 4+.
Several patients agreed to longer term follow up studies. […] Patient #17 was never treated: NAA/Cr decreased from 2.51 to 2.42 after 21 days and further to 2.11 4 months later; their symptoms progressed slowly.

Regarding `Nc1nc2ccc(OC(F)(F)F)cc2s1` [RILUZOLE, 2-amino-6-trifluoromethoxy-benzothiazole], the “average NAA/Cr for the group after therapy” value in experiment [1] (11 patients (ALS-R), 24±8 days after initiating therapy, increased from 2.14±0.26, mean±SD, p=0.044) is 2.27±0.24. Further, the “ΔNAA/Cr = Change in NAA/Cr between MRSI scan #1 and #2” value in experiment [1] (ALS-R group, scan just before treatment vs approximately three weeks after starting 50 mg bid, individual patients 1-11 and group mean (n = 11)) is −0.011 and 0.111 and 0.438 and 0.295 and 0.118 and 0.234 and −0.021 and −0.251 and 0.222 and 0.290 and 0.034. Also, in experiment [1] (ALS-R group, second scan approximately three weeks after starting 50 mg bid, individual patients 1-11 and group mean (n = 11)), the “NAA/Cr MRSI #2 (NAA/Cr of motor cortex)” value was 2.508 and 2.643 and 2.442 and 2.416 and 2.423 and 2.291 and 1.890 and 2.083 and 2.247 and 1.969 and 2.053. In addition, the “change in NAA/Cr for the treated group with respect to the untreated group (increase)” value in experiment [1] (ALS-R vs ALS-C, approximately 3 weeks, mean±SE, p=0.008) worked out at 0.22±0.095. In addition, the NAA/Cr in experiment [1] (patient #2, after 35 days of therapy, from 2.53) came out at 2.64; in experiment [1] (patient #2, three months later than the 35-day scan), 2.74; in experiment [1] (patient #3, after 18 days of therapy, from 2.00), 2.44; in experiment [1] (patient #3, three months later than the 18-day scan) it was 1.46; in experiment [1] (patient #5, after 21 days of therapy, from 2.24), 2.31; in experiment [1] (patient #5, one year later), 2.42. The “signal from NAA in the motor cortex” value in experiment [1] (patients with ALS, acute (within 3 weeks) after treatment) is “increase”. Also, the clinical status entry was “increased strength and fewer cramps” in the experiment on patients with ALS (patient #2, three months after the 35-day scan); “significant clinical deterioration” with patients with ALS (patient #3, three months after the 18-day scan). Further, in the experiment on patients with ALS (patient #5, one year later), the “clinical status (weakness, predominantly LMN features)” value is “slowly progressed”. Further, the “symptomatic and functional changes” value in the experiment with patients with ALS (patient #11, after 35 days of therapy) was “improved strength and reduced disability”.
